# pIC50: −log10 of the molar value. Read-outs that look alike come from different tables or passages of the source.
# Key:
# Staphylococcus aureus = experiment: MIC, Staphylococcus aureus (MSSA, MRSA); assay type: cell-based
# Text: (§1) Bacterial isolates were subjected to broth microdilution susceptibility testing, performed according to Clinical and Laboratory Standards Institute (CLSI) methods ([46]), using panels prepared in-house. Meropenem was purchased from Sandoz, and all other antibiotics were from Sigma-Aldrich. Xeruborbactam was synthesized at Qpex Biopharma, San Diego, CA. Avibactam was purchased from eNovation Chemicals LLC, Bridgewater, NJ, USA; zidebactam was from MedKoo Biosciences, Inc., Morrisville, NC, and nacubactam was from Advanced ChemBlocks, Hayward, CA. Durlobactam was synthesized at Acme Bioscience, Palo Alto, CA, USA.
# Enterococcus faecalis = experiment: MIC, Enterococcus faecalis; assay type: cell-based
# Text: as §1
# PBP1a [1] = molecular target: PBP1a (Klebsiella pneumoniae, UniProt A0A0H3GZF1); experiment: Gel-based Bocillin FL competition PBP binding assay; details: read-out: Relative binding IC50, PBP1a; K. pneumoniae KPM1001 membranes; Bocillin FL step 0°C for xeruborbactam, 30°C for beta-lactams
# Method: (§2) Ten milliliters of overnight bacterial culture was inoculated in 1 L of LB medium and grown to an OD600 of 0.7 to 0.9. The cell pellet was washed once with 50 mL of solution containing 100 mM Na-phosphate at pH 7.0 and 100 mM NaCl and resuspended in 10 mL of the same buffer with one tablet of EDTA-free mini-protease inhibitor and 10 mg of lysozyme. Cell suspensions were incubated for 45 min at 37°C, and then 200 μL of DNase I was added along with MgSO4 (to a final concentration of 10 mM), followed by three cycles of freeze-thawing (10 min and 20 min, respectively). Four cycles of sonication at maximum power were performed next, each cycle lasting for 30 s with 1 min on ice between cycles. The cell suspension was centrifuged at 12,000 × g for 10 min at 4°C. The supernatant was collected and centrifuged at 100,000 × g for 45 min at 4°C. The pellet was washed three times with 10 mL of 100 mM Na-phosphate, pH 7.0, by resuspension and subsequent centrifugation at 100,000 × g for 10 min at 4°C. The pellet was finally resuspended in 1.5 mL of 100 mM Na-phosphate, pH 7.0, and passed several times through a Dounce homogenizer (tight pestle). Membrane preparations were aliquoted and kept at −80°C.
# (§3) Five microliters of total bacterial membrane preparation was mixed with 5 μL of a test compound at a desired concentration in 100 mM Na-phosphate buffer, pH 7.0. Incubation of bacterial membrane preparations with control beta-lactams was performed for 10 min at 30°C; xeruborbactam was incubated with membrane preparations for 1 h at 30°C. Five microliters of 150 μM Bocillin FL fluorescent probe (Thermo Fisher Scientific) was added, and the reaction mixture was incubated for an additional 10 min at 30°C in the case of beta-lactams or for 20 min on ice (0°C) in the case of xeruborbactam. We believe that the 0°C temperature is required to prevent displacement of xeruborbactam from its complex by the Bocillin probe. At the end of the incubation step, 15 μL of 2× SDS sample loading buffer was added, and the reaction mixture was incubated for 5 min at 95°C. Twenty-five microliters of the reaction mixture was then loaded on an 8% SDS Tris-glycine gel (Thermo Fisher Scientific). At the end of the run, the gel was briefly rinsed with water and fixed in 10% acetic acid, 40% methanol for 20 min. After an additional wash in water for 30 min, the gel was scanned on a Typhoon Trio+ Imager using a blue laser filter (excitation, 488 nm, and emission, 520 nm). Densitometry of the gel images was performed using ImageQuant software (Molecular Dynamics). IC50 values were calculated with Prism software (GraphPad).
# PBP2 = PBP2 (Klebsiella pneumoniae, UniProt A6T696); experiment: as above
# Method: as §2, §3
# PBP1a [2] = molecular target: PBP1a (Acinetobacter baumannii, UniProt A0ABX6CK30); experiment: as above; details: read-out: Relative binding IC50, PBP1a; A. baumannii ACM1320 membranes; Bocillin FL step 0°C for xeruborbactam, 30°C for beta-lactams
# Method: as §2, §3
# PBP1a [3] = molecular target: T1, PBP1a (Escherichia coli, UniProt P02918); experiment: as above
# T1 construct: endogenous in cells; host or cells: Escherichia coli ECM5497 (MG1655), total membrane preparation
# Method: as §2, §3
# PBP1b = molecular target: T2, PBP1b (Escherichia coli, UniProt P02919); experiment: as above
# T2 construct: endogenous in cells; host or cells: Escherichia coli ECM5497 (MG1655), total membrane preparation
# Method: as §2, §3
# PBP3 [4] = molecular target: PBP3 (Klebsiella pneumoniae, UniProt A0A0H3GN85); experiment: as above; details: read-out: Relative binding IC50, PBP3; K. pneumoniae KPM1001 membranes; Bocillin FL step 0°C for xeruborbactam, 30°C for beta-lactams
# Method: as §2, §3
# PBP3 [5] = molecular target: PBP3 (Acinetobacter baumannii, UniProt A0ABX6CK25); experiment: as above; details: read-out: Relative binding IC50, PBP3; A. baumannii ACM1320 membranes; Bocillin FL step 0°C for xeruborbactam, 30°C for beta-lactams
# Method: as §2, §3
# T1 sequence (P02918 whole entry): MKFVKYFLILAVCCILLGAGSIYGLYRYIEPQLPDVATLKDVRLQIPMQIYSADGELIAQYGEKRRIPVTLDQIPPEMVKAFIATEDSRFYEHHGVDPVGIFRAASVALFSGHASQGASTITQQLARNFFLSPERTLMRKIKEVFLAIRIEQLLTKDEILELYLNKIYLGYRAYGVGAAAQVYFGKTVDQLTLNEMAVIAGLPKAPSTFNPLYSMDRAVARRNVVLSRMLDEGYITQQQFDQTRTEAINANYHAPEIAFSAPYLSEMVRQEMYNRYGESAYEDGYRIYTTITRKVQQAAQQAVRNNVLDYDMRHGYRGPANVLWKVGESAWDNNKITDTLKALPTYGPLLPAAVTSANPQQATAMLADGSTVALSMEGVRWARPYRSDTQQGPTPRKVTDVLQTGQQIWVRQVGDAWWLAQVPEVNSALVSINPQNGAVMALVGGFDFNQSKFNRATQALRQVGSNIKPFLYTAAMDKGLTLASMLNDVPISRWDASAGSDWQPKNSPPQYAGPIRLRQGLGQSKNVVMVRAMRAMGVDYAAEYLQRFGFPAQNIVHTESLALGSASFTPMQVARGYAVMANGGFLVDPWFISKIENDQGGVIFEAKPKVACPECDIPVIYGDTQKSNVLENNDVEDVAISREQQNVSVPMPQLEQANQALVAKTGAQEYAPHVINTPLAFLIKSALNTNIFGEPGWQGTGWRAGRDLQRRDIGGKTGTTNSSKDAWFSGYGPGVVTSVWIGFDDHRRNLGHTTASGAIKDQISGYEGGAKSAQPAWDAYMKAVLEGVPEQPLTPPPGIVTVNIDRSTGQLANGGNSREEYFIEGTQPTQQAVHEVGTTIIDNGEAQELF
# PBP1a (Acinetobacter baumannii, UniProt A0ABX6CK30), sequence (A0ABX6CK30 entry or part of it): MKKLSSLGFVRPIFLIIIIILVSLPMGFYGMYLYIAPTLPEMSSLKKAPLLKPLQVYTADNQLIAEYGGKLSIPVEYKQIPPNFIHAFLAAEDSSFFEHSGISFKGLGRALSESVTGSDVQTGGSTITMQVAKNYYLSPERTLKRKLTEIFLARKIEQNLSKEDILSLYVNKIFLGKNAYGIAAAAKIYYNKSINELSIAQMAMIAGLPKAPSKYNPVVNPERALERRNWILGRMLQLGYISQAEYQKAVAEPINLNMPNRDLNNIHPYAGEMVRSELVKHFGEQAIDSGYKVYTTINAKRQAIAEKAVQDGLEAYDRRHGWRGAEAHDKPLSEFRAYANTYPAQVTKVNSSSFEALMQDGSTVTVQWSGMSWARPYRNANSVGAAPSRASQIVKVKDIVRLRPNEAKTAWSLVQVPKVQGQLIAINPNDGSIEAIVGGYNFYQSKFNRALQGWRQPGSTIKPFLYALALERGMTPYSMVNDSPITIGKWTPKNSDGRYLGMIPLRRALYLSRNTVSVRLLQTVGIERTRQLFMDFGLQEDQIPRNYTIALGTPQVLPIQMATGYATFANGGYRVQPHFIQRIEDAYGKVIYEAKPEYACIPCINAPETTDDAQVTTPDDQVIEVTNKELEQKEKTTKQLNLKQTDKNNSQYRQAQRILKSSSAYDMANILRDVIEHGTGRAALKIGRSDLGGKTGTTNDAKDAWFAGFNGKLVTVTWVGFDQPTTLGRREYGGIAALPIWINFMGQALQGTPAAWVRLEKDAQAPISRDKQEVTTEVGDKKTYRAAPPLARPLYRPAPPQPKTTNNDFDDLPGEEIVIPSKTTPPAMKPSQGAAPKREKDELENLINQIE
# PBP3 (Klebsiella pneumoniae, UniProt A0A0H3GN85), sequence (A0A0H3GN85 entry or part of it): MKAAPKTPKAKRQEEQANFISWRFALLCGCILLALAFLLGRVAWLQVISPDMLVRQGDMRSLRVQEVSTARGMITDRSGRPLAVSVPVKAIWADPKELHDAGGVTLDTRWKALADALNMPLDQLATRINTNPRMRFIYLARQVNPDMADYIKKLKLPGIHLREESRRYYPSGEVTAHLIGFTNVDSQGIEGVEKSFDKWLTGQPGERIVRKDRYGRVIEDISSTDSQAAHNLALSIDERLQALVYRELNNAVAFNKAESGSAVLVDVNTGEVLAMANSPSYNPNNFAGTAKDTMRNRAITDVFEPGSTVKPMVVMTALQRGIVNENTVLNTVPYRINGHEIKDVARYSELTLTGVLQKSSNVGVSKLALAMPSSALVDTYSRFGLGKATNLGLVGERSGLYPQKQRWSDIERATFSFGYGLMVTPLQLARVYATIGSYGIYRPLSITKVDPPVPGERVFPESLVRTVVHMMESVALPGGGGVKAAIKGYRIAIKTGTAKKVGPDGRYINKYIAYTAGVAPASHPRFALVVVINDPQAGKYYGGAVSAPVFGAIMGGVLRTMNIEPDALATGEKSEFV
# PBP1a (Klebsiella pneumoniae, UniProt A0A0H3GZF1), sequence (A0A0H3GZF1 entry or part of it): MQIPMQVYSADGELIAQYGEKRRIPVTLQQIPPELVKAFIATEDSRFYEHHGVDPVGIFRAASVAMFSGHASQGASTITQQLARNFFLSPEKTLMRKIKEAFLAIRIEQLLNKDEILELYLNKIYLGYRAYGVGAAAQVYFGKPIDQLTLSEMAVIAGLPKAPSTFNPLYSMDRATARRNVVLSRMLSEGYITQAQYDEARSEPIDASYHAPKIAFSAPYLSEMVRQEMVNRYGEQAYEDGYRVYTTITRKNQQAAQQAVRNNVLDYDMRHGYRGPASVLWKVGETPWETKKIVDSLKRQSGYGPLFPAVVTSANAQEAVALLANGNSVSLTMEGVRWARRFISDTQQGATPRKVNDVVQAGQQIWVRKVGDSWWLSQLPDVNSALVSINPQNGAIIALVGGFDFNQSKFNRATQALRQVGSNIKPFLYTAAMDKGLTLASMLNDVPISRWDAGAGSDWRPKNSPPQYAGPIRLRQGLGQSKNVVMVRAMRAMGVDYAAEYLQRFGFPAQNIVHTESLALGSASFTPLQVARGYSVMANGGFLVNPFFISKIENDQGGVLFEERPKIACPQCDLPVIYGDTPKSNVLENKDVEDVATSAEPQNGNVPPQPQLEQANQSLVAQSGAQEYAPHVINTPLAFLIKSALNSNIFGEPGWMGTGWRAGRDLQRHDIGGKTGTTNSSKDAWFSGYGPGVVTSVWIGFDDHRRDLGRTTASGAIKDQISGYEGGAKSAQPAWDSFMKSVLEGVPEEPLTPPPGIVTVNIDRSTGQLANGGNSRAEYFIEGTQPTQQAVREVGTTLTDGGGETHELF
# PBP3 (Acinetobacter baumannii, UniProt A0ABX6CK25), sequence (A0ABX6CK25 entry or part of it): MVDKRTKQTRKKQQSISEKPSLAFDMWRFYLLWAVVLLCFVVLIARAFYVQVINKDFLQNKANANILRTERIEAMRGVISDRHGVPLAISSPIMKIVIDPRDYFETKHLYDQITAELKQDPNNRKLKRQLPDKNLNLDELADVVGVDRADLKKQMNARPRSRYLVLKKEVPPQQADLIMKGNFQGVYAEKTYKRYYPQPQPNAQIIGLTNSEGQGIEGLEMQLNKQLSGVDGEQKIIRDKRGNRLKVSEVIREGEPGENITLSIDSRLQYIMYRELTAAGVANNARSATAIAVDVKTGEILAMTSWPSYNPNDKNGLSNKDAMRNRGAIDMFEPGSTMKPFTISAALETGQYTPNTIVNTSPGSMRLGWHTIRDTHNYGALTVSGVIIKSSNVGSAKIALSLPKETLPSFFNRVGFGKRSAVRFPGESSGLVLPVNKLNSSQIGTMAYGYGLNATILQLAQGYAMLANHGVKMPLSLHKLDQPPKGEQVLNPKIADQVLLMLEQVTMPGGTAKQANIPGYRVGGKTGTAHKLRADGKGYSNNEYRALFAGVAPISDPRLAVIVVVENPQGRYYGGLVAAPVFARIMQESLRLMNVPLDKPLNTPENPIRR
# PBP2, sequence (A6T696 entry or part of it): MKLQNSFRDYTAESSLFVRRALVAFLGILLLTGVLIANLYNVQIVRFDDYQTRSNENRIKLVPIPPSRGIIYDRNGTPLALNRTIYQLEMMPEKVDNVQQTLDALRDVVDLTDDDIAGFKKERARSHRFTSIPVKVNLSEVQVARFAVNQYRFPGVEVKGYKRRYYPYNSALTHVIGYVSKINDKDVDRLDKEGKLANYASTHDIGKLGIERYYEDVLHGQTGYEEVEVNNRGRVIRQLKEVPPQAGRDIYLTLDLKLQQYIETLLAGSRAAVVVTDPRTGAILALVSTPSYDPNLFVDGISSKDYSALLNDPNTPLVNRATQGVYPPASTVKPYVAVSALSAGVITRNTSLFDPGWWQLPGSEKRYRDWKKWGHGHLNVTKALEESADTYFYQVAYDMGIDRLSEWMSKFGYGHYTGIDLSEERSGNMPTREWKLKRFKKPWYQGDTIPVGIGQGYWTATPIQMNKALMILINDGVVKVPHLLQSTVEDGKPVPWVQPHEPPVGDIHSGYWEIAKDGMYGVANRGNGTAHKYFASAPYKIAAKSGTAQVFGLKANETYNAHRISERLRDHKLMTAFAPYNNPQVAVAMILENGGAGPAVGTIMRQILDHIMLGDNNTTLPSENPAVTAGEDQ
compound,measurement,setting,value
C[C@@H](O)[C@H]1C(=O)N2C(C(=O)O)=C(S[C@@H]3CN[C@H](C(=O)N(C)C)C3)[C@H](C)[C@H]12 [Meropenem],MIC,"Staphylococcus aureus; Staphylococcus aureus, ATCC 29213 / MSSA, ATCC 29213, MSSA, read-out: MIC",0.06 µg/mL
same,MIC,"Staphylococcus aureus; Staphylococcus aureus, MRSA, sa001, MRSA, read-out: MIC",16 µg/mL
same,MIC,"Staphylococcus aureus; Staphylococcus aureus, MRSA, sa010, MRSA, read-out: MIC",32 µg/mL
same,MIC,"Staphylococcus aureus; Staphylococcus aureus, MRSA, sa013, MRSA, read-out: MIC",16 µg/mL
same,MIC,"Staphylococcus aureus; Staphylococcus aureus, MRSA, sa014, MRSA, read-out: MIC",8 µg/mL
same,MIC,"Staphylococcus aureus; Staphylococcus aureus, MRSA, sa148, MRSA, read-out: MIC",32 µg/mL
same,MIC,"Staphylococcus aureus; Staphylococcus aureus, MRSA, sa150, MRSA, read-out: MIC",32 µg/mL
same,MIC,"Staphylococcus aureus; Staphylococcus aureus, MRSA, sa151, MRSA, read-out: MIC",32 µg/mL
same,MIC,"Staphylococcus aureus; Staphylococcus aureus, MRSA, sa152, MRSA, read-out: MIC",4 µg/mL
same,MIC,"Staphylococcus aureus; Staphylococcus aureus, MRSA, sa153, MRSA, read-out: MIC",32 µg/mL
same,MIC,"Staphylococcus aureus; Staphylococcus aureus, MRSA, sa278, MRSA, read-out: MIC",32 µg/mL
same,MIC,"Staphylococcus aureus; Staphylococcus aureus, MRSA, sa279, MRSA, read-out: MIC",4 µg/mL
same,MIC,"Staphylococcus aureus; Staphylococcus aureus, MRSA, sa280, MRSA, read-out: MIC",4 µg/mL
same,MIC,"Staphylococcus aureus; Staphylococcus aureus, MRSA, sa281, MRSA, read-out: MIC",32 µg/mL
same,MIC,"Staphylococcus aureus; Staphylococcus aureus, MSSA",0.125 µg/mL
same,MIC,"Staphylococcus aureus; Staphylococcus aureus, MSSA, sa007, MSSA, read-out: MIC",0.25 µg/mL
same,MIC,"Staphylococcus aureus; Staphylococcus aureus, MSSA, sa015, MSSA, read-out: MIC",0.25 µg/mL
same,MIC,"Staphylococcus aureus; sa002, MSSA",0.125 µg/mL
same,MIC,"Staphylococcus aureus; sa003, MSSA",0.125 µg/mL
same,MIC,"Staphylococcus aureus; sa004, MSSA",0.125 µg/mL
same,MIC,"Staphylococcus aureus; sa005, MSSA",0.125 µg/mL
same,MIC,"Staphylococcus aureus; sa006, MSSA",0.125 µg/mL
same,MIC,"Staphylococcus aureus; sa008, MSSA",0.125 µg/mL
same,MIC,"Staphylococcus aureus; sa009, MSSA",0.125 µg/mL
same,MIC,"Staphylococcus aureus; sa012, MSSA",0.125 µg/mL
same,MIC,Enterococcus faecalis; efs003,2 µg/mL
same,MIC,Enterococcus faecalis; efs004,4 µg/mL
same,MIC,Enterococcus faecalis; efs005,4 µg/mL
same,MIC,Enterococcus faecalis; efs006,2 µg/mL
same,MIC,Enterococcus faecalis; efs007,4 µg/mL
same,MIC,Enterococcus faecalis; efs026,2 µg/mL
same,MIC,Enterococcus faecalis; efs071,4 µg/mL
same,MIC,Enterococcus faecalis; efs072,2 µg/mL
same,MIC,Enterococcus faecalis; efs073,4 µg/mL
same,MIC,Enterococcus faecalis; efs090,1 µg/mL
same,MIC,Enterococcus faecalis; efs091,1 µg/mL
same,MIC,Enterococcus faecalis; efs092,8 µg/mL
same,MIC,Enterococcus faecalis; efs093,16 µg/mL
same,MIC,Enterococcus faecalis; efs094,> 32 µg/mL
same,MIC,Enterococcus faecalis; efs095,4 µg/mL
same,MIC,Enterococcus faecalis; efs096,4 µg/mL
same,pIC50,PBP1a [1],5.18
same,pIC50,PBP2,8.52
same,pIC50,PBP1a [2],7.15
same,pIC50,PBP1a [3],5.27
same,pIC50,PBP1b,4.68
same,pIC50,PBP3 [4],6.62
same,pIC50,PBP3 [5],6.72

# Source: PMC9578396, “Intrinsic Antibacterial Activity of Xeruborbactam In Vitro: Assessing Spectrum and Mode of Action” (Antimicrobial Agents and Chemotherapy, 2022)
